Test results from US9044437B2, “Method for treating alzheimer's disease using pharmacological chaperones to increase the activity of gangliosidases” (Amicus Therapeutics, Inc., priority 2009, dated 2015).
Like-named read-outs stand apart in the source and are kept apart here. Each block holds one molecule with its values, some of them ahead of it.

Assays:
[1] = biological target: B-Hex (β-hexosaminidase, Hex A/B); assay: Comparative selectivity of pharmacological chaperones: B-Hex inhibition; assay type: biochemical; details: marked **: Values reported as Ki's; read-out: IC50 B-Hex, values reported as Ki's
wild-type β-Hex = biological target: T1, wild-type β-Hex (Mus musculus, UniProt P20060); assay: Cellular β-Hex levels in N2A mouse neuroblastomas (HexB immunoblot); assay type: cell-based; details: 10 μM, 3 days
T1 construct: increase in endogenous wild-type β-hexosaminidase levels and sAPPα shedding in N2A mouse neuroblastomas; endogenous in cells; host or cells: N2A mouse neuroblastoma cells
T1 sequence (P20060 32-536): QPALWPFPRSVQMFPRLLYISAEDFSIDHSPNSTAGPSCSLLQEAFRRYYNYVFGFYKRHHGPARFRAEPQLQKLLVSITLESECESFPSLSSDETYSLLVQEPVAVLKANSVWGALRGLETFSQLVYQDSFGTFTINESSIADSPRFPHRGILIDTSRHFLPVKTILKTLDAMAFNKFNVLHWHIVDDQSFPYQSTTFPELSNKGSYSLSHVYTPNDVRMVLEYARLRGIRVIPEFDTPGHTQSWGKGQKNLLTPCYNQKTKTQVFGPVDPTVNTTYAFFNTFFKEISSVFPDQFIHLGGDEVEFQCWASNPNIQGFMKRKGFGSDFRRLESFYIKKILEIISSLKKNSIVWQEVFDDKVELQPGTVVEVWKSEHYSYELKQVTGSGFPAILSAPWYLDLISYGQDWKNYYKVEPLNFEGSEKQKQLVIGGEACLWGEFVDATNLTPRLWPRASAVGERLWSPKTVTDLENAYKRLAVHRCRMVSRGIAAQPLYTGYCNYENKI
Procedure: (§1) The data shown in FIG. 4 was generated as follows. N2A mouse neuroblastomas were treated for 3 days either with no compound or with 10 μM AdDNJ, 10 μM NGT or 10 μM DGJ. The cells were scraped, harvested by centrifugation, and the cell pellet was solubilized using RIPA buffer (1% TX100, 0.5% Taurodeoxycholate, and 0.1% SDS in TBS plus protease inhibitors). The cell lysate was immunoblotted using a rabbit polyclonal antibody specific for HexB (Abcam). The levels of sAPPα were determined by immunoblotting a small fraction (30 μl) of the growth media using 22C11 antibody (Millipore).
(§2) FIG. 4A) Treatment of N2A mouse neuroblastomas with 10 μM NGT and AdDNJ increased cellular levels of wild-type β-Hex while deoxygalactonojirimycin (DGJ), a pharmacological chaperone for the lysosomal enzyme acid α-galactosidase, had no effect on β-Hex levels.

sAPPα [2] = assay: sAPPα shedding by N2A mouse neuroblastomas (22C11 immunoblot of media); assay type: cell-based; details: 10 μM, 3 days
Procedure: as §1, §2

Neu 3 = biological target: T2, Neu 3 (Homo sapiens, UniProt Q9UQ49); details: marked *: Values reported in the literature; cited from earlier work
T2 sequence (Q9UQ49 1-428): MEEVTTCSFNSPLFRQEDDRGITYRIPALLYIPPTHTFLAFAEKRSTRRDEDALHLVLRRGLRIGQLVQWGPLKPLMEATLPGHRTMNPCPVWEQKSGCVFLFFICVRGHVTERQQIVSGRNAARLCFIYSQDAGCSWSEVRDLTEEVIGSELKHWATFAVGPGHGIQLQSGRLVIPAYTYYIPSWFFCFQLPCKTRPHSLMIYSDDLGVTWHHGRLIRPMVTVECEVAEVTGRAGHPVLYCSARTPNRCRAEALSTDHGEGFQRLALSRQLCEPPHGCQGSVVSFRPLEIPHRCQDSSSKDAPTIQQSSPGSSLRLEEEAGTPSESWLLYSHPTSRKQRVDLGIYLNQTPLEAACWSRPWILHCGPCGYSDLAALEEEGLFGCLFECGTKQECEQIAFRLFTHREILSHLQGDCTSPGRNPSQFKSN

[3] = biological target: T3, wild-type endogenous neuraminidase 1 (Homo sapiens, UniProt Q99519); assay: Neuraminidase 1 levels in fibroblasts derived from healthy individuals; assay type: cell-based; details: 5 days
T3 construct: selectively increases wild-type endogenous neuraminidase-1 levels in fibroblasts; endogenous in cells; host or cells: healthy control fibroblasts
Procedure: The data shown in FIG. 7 was generated as follows. Healthy control fibroblasts were treated for 5 days either with NB-DANA or IFG. The cells were scraped, harvested by centrifugation, and the cell pellet was solubilized using RIPA buffer (1% TX100, 0.5% Taurodeoxycholate, and 0.1% SDS in TBS plus protease inhibitors). The cell lysate was immunoblotted using a polyclonal antibody specific for Neu1 (Novus).
(A) The pharmacological chaperone NB-DANA increased wild-type endogenous neuraminidase 1 levels by up to 2 fold. […] Fibroblasts derived from healthy individuals were treated with NB-DANA or IFG for 5 days and enzyme activity was measured in cell lysates using the substrate NANA-4-MU. Enzyme activity was expressed as nmol of 4-MU generated per mg protein per hour.

Neu 1 [4] = biological target: T4, Neu 1 (Homo sapiens, UniProt Q99519); details: marked *: Values reported in the literature; cited from earlier work
Neu 1 [5] = biological target: T4, Neu 1; assay: Comparative selectivity: Neu 1 inhibition; assay type: biochemical
Neu 2 = Neu 2 (Homo sapiens, UniProt Q9Y3R4); details: marked *: Values reported in the literature; cited from earlier work
Sequence of Neu 2 (Q9Y3R4 whole entry): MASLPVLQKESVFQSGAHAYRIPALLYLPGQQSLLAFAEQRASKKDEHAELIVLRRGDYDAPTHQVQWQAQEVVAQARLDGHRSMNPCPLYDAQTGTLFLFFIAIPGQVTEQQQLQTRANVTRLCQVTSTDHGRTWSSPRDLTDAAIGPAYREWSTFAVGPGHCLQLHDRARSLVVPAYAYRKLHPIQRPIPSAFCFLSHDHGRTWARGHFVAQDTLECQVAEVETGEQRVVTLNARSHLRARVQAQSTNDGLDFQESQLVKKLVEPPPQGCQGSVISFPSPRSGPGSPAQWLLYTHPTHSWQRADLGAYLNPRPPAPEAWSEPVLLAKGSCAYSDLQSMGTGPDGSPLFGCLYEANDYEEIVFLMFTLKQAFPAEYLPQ

Neu 4 = biological target: T5, Neu 4 (Homo sapiens, UniProt Q8WWR8); details: marked *: Values reported in the literature; cited from earlier work
T5 sequence (Q8WWR8 1-484): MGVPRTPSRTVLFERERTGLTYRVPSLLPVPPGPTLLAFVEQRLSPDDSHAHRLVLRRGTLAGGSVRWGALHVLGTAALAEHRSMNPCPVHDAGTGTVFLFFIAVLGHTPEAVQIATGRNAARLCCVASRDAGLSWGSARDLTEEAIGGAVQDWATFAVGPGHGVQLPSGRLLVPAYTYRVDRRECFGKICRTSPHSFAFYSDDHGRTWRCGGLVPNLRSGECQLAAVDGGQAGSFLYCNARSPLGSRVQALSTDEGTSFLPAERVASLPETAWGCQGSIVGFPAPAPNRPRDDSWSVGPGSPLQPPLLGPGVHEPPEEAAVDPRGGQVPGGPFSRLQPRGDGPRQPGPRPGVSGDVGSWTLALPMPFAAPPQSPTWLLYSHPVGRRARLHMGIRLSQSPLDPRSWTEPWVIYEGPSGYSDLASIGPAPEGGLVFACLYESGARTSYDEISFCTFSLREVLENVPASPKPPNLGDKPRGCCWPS

sAPPα [6] = assay: sAPPα production by fibroblasts treated with NB-DGJ (6E10 immunoblot); assay type: cell-based, human; details: Sandhoff fibroblasts, 5 days treatment
Procedure: The data shown in FIG. 3 was generated as follows. A wild type(healthy) fibroblast cell line (CRL2076; Coriell) and a fibroblast cell line from a Sandhoff patient (GM11707; Coriell) were cultured overnight in DMEM (plus 10% FBS) growth medium, followed by an overnight incubation in serum free media. Secreted proteins were collected by TCA precipitation (12.5%) of the growth media and analyzed by immunoblotting using 6E10 antibody (Covance) to determine the levels of sAPPα. […] To measure levels of secreted Aβ40 in media, fibroblasts (CRL2076 & GM11707) were cultured overnight in DMEM (plus 10% FBS) growth medium (3 wells/sample; 1 ml media/well), followed by an overnight incubation in serum free media. The 3 wells/sample were combined and mixed with 0.3 ml methanol, 30 μl 10% TFA (Trifluoroacetic acid). The samples were pre-concentrated using a Sepak C18 column (Waters) and then used in an ELISA assay (Covance) to determine the levels of Aβ40. To determine the levels of full length APP, fibroblasts (CRL2076 & GM11707) were cultured overnight in DMEM (plus 10% FBS) growth medium. […] Secreted proteins were collected by TCA precipitation (12.5%) of the growth media and analyzed by immunoblotting using 6E10 antibody (Covance) to determine the levels of sAPPα. […]

Molecule: CC(=O)N[C@H]1CN[C@H](CO)[C@@H](O)[C@@H]1O [AdDNJ, 2-acetamido-1,2-dideoxynojirimycin]
Ki [1]: 0.7 µM
cellular levels of wild-type β-Hex (wild-type β-Hex): increased
shedding of neurotrophic sAPPα (sAPPα [2]): increased

Molecule: CC(=O)N[C@H]1[C@H]([C@H](O)[C@H](O)CO)OC(C(=O)O)=C[C@@H]1O [DANA, 2-deoxy-2,3-dehydro-N-acetylneuraminic acid]
IC50 (Neu 3): 61 µM

Molecule: OC[C@H]1CNC[C@@H](O)[C@@H]1O [IFG, isofagomine, reference compound]
effect on wild-type neuraminidase 1 levels [3]: does not increase

Molecule: 5-(acetylamino)-4-[(aminoiminomethyl)-amino]-2,6-anhydro-3,4,5-trideoxy-D-glycero-D-galacto-non-2-enonic acid [Zanamivir]
IC50 (Neu 1 [4]): 2710 µM

Molecule: CCCCOC(=O)C1=C[C@H](O)[C@@H](NC(C)=O)[C@H]([C@H](O)[C@H](O)CO)O1 [NB-DANA, n-butyl-2-deoxy-2,3-dehydro-N-acetylneuraminic acid]
IC50 (Neu 1 [5]): 10 µM
increase of wild-type endogenous neuraminidase 1 levels [3]: up to 2 fold
IC50 (Neu 2): > 1000 µM
IC50 (Neu 3): > 1000 µM
IC50 (Neu 4): > 1000 µM

Molecule: CC(=O)N[C@H]1[C@H]([C@H](O)[C@H](O)CO)OC(C(=O)Oc2ccccc2)=C[C@@H]1O [Phenyl DANA, Phenyl 2-deoxy-2,3-dehydro-N-acetylneuraminic acid, reference compound]
IC50 (Neu 1 [4]): 13 µM
IC50 (Neu 2): 865 µM
IC50 (Neu 3): 320 µM
IC50 (Neu 4): 810 µM

cellular levels of wild-type β-Hex (wild-type β-Hex): no effect
Molecule: OC[C@H]1NC[C@H](O)[C@@H](O)[C@H]1O [DGJ, deoxygalactonojirimycin, reference compound]

Molecule: CCCCN1C[C@H](O)[C@@H](O)[C@@H](O)[C@H]1CO [N-butyl-deoxygalactonojirimycin]
increase in production of sAPPα (sAPPα [6]): 35-40%
